# Earlier results in patent US20070293698A1, “Compositions of Allosteric Hemoglobin Modifiers and Methods of Making the Same” (ALLOS THERAPEUTICS, INC., priority 2004, published 2007).
# Columns and labels:
# [1] = system: mouse fibrosarcoma tumor; conditions: combination of efaproxiral and radiation relative to radiation alone; Teicher 1996, Khandelwal 1996
# [2] = system: Lewis lung carcinoma; conditions: mice bearing the Lewis lung carcinoma; Teicher 1996
# [3] = target: hemoglobin (Homo sapiens, UniProt P68871+P69905); conditions: in vivo
# Sequence of hemoglobin (P69905 2-142 limits assumed): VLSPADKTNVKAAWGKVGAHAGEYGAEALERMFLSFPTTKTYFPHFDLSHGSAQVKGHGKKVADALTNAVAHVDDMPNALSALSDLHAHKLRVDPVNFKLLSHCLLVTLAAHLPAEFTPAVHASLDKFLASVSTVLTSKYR
# Sequence of hemoglobin (P68871 2-147 limits assumed): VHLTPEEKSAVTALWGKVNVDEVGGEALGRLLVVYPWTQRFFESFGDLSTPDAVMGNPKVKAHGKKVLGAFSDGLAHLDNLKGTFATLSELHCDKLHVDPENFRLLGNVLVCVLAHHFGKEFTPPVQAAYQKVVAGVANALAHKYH
# [4] = system: EMT6 mouse mammary tumors; conditions: efaproxiral plus oxygen breathing, Rockwell and Kelley 1998
compound,measurement,setting,value
"Cc1cc(C)cc(NC(=O)Cc2ccc(OC(C)(C)C(=O)O)cc2)c1 [efaproxiral, 2-[4-((((3,5-dimethylphenyl)amino)carbonyl)methyl)phenoxy]-2-methyl propionic acid]",tumor growth,[1],tumor growth has been shown to be reduced
same,effect on fractionated radiation therapy,[2],enhance fractionated radiation therapy
same,tissue oxygenation,[3],enhance tissue oxygenation in vivo
same,effect of radiation in tumors,[4]; EMT6 tumors,Enhancement of the effect of radiation was observed
same,radiation effects in normal tissues,[4]; normal tissues,absence of enhanced radiation effects in normal tissues
